Experimental data: patent US20010047017A1, “Azole derivatives” (priority 2000, published 2001)
≈ marks a conversion by molar mass, not a printed value.

Experiments:
Assay in all cases: In vitro antifungal activity (IC80), broth micro-dilution
Format in all cases: cell-based
[1] = tested on: Absidia corymbifera (CF1001); conditions: Lichtheimia corymbifera; 80% inhibitory concentration; YNB medium solidified with 0.2% low melting point agarose; 1-2 days at 35° C.; read-out: In vitro antifungal activity (IC80) A. cormybifera (CF1001)
Method: (§1) In vitro antifungal activities of 1-(1H-1,2,4-triazol-1-yl)butan-2-ol derivatives of the formula (I) of the present invention were evaluated by determining the 80% inhibitory concentration (IC80), which was calculated as the lowest concentration of an antifungal to inhibit the growth of fungus to 20% turbidity compared with the drug-free control growth spectrophotometrically. The IC80 values were determined by the broth micro-dilution procedure based on NCCLS Approved Standard with the following minor modifications:
(§2) National Committee for Clinical Laboratory Standards. (1997) Reference method for broth dilution antifungal susceptibility testing for yeasts. Approved standard.
(§3) Yeast Nitrogen Base (YNB; Difco Lab.) supplemented with 1% glucose and 0.25% K2HPO4 was used as testing medium for yeast, the same medium solidified with 0.2% low melting point agarose (BRL) was used for filamentous fungi. Inoculum size was 1-3×10^4 cells/ml, and incubation was performed for 1-2 days at 35° C.
(§4) The inhibitory activity of 1-(1H-1,2,4-triazol-1-yl)butan-2-ol derivatives of the formula (I) against in vitro growth of Candida albicans, Aspergillus fumigatus, Rhizopus oryzea, and Absidia corymbifera is summarized in Table 1 comparing with 2-(2,4-difluorophenyl)-1,3-bis(1H-1,2,4-triazol-1-ylmethyl)propan-2-ol (Fluconazole; Pfizer).

[2] = tested on: Candida albicans (CY1002); conditions: 80% inhibitory concentration, YNB medium with 1% glucose and 0.25% K2HPO4, 1-2 days at 35° C.
Method: as §1, §2, §3, §4

[3] = tested on: Aspergillus fumigatus (437); conditions: 80% inhibitory concentration, YNB medium solidified with 0.2% low melting point agarose, 1-2 days at 35° C.
Method: as §1, §2, §3, §4

[4] = tested on: Rhizopus oryzea (CFF1118); conditions: 80% inhibitory concentration, YNB medium solidified with 0.2% low melting point agarose, 1-2 days at 35° C., read-out: In vitro antifungal activity (IC80) R. oryzea (CFF1118)
Method: as §1, §2, §3, §4

SMILES | IC80 [1] [µg/mL] | IC80 [2] [µg/mL] | IC80 [3] [µg/mL] | IC80 [4] [µg/mL]
CCOC(=O)c1csc(-c2ccc(-c3csc([C@H](C)[C@](O)(Cn4cncn4)c4ccc(F)cc4F)n3)cc2)n1 [Example 9, 2-(4-{2-[(1R,2R)-2-(2,4-Difluorophenyl)-2-hydroxy-1-methyl-3-(1H-1,2,4-triazol-1-yl)propyl]thiazol-4-yl}phenyl)thiazole-4-carboxylic acid ethyl ester] | 0.17 (≈ 0.299 µM) | 0.022 (≈ 0.0388 µM) | 0.5 (≈ 0.881 µM) | 0.036 (≈ 0.0634 µM)
Cc1nc(-c2ccc(-c3csc([C@H](C)[C@](O)(Cn4cncn4)c4ccc(F)cc4F)n3)cc2)ns1 [Example 18, (2R,3R)-2-(2,4-Difluorophenyl)-3-(4-{4-[5-methyl-(1,2,4-thiadiazol-3-yl)]phenyl}thiazol-2-yl)-1-(1H-1,2,4-triazol-1-yl)butan-2-ol] | 0.19 (≈ 0.372 µM) | 0.0031 (≈ 0.00607 µM) | 0.28 (≈ 0.548 µM) | 0.046 (≈ 0.0901 µM)
C[C@@H](c1nc(-c2ccc(-c3csnn3)cc2)ns1)[C@](O)(Cn1cncn1)c1cc(F)ccc1F [Example 2, (2R,3R)-2-(2,5-Difluorophenyl)-3-{3-[4-(1,2,3-thiadiazol-4-yl)phenyl]-1,2,4-thiadiazol-5-yl}-1-(1H-1,2,4-triazol-1-yl)butan-2-ol] | 0.047 (≈ 0.0945 µM) | 0.0014 (≈ 0.00281 µM) | 0.036 (≈ 0.0724 µM) | 0.011 (≈ 0.0221 µM)
CCc1nc(-c2ccc(-c3csc([C@H](C)[C@](O)(Cn4cncn4)c4ccc(F)cc4F)n3)cc2)ns1 [Example 19, (2R,3R)-2-(2,4-Difluorophenyl)-3-(4-{4-[5-ethyl-(1,2,4-thiadiazol-3-yl) ]phenyl}thiazol-2-yl)-1-(1H-1,2,4-triazol-1-yl)butan-2-ol] | 0.25 (≈ 0.477 µM) | 0.016 (≈ 0.0305 µM) | 0.3 (≈ 0.572 µM) | 0.044 (≈ 0.0839 µM)
C[C@@H](c1nc(-c2ccc(-c3csnn3)cc2)cs1)[C@](O)(Cn1cncn1)c1cc(F)ccc1F [Example 4, (2R,3R)-2-(2,5-Difluorophenyl)-3-{4-[4-(1,2,3-thiadiazol-4-yl)phenyl]thiazol-2-yl}-1-(1H-1,2,4-triazol-1-yl)butan-2-ol] | 0.017 (≈ 0.0342 µM) | 0.011 (≈ 0.0222 µM) | 0.17 (≈ 0.342 µM) | 0.0028 (≈ 0.00564 µM)
C[C@@H](c1nc(-c2ccc(-c3csnn3)cc2)cs1)[C@](O)(Cn1cncn1)c1ccc(F)cc1F [Example 3, (2R,3R)-2-(2,4-Difluorophenyl)-3-{4-[4-(1,2,3-thiadiazol-4-yl)phenyl]thiazol-2-yl}-1-(1H-1,2,4-triazol-1-yl)butan-2-ol] | 0.024 (≈ 0.0483 µM) | 0.011 (≈ 0.0222 µM) | 0.14 (≈ 0.282 µM) | 0.0029 (≈ 0.00584 µM)
C[C@@H](c1nc(-c2ccc(-c3csnn3)cc2)ns1)[C@](O)(Cn1cncn1)c1ccc(F)cc1F [Example 1, (2R,3R)-2-(2,4-Difluorophenyl)-3-{3-[4-(1,2,3-thiadiazol-4-yl)phenyl]-1,2,4-thiadiazol-5-yl}-1-(1H-1,2,4-triazol-1-yl)butan-2-ol] | 0.0057 (≈ 0.0115 µM) | 0.00093 (≈ 0.00187 µM) | 0.11 (≈ 0.221 µM) | 0.0023 (≈ 0.00462 µM)
Cc1csc(-c2ccc(-c3csc([C@H](C)[C@](O)(Cn4cncn4)c4ccc(F)cc4F)n3)cc2)n1 [Example 6, (2R,3R)-2-(2,4-Difluorophenyl)-3-{4-[4-(4-methylthiazol-2-yl)phenyl]thiazol-2-yl}-1-(1H-1,2,4-triazol-1-yl)butan-2-ol] | 0.33 (≈ 0.648 µM) | 0.021 (≈ 0.0412 µM) | 0.67 (≈ 1.31 µM) | 0.095 (≈ 0.186 µM)
C[C@@H](c1nc(-c2ccc(-c3nccs3)cc2)cs1)[C@](O)(Cn1cncn1)c1ccc(F)cc1F [Example 5, (2R,3R)-2-(2,4-Difluorophenyl)-3-{4-[4-(thiazol-2-yl)phenyl]thiazol-2-yl}-1-(1H-1,2,4-triazol-1-yl)butan-2-ol] | 0.3 (≈ 0.605 µM) | 0.0059 (≈ 0.0119 µM) | 0.35 (≈ 0.706 µM) | 0.0047 (≈ 0.00948 µM)
CCc1csc(-c2ccc(-c3csc([C@H](C)[C@](O)(Cn4cncn4)c4ccc(F)cc4F)n3)cc2)n1 [Example 7, (2R,3R)-2-(2,4-Difluorophenyl)-3-{4-[4-(4-ethylthiazol-2-yl)phenyl]thiazol-2-yl}-1-(1H-1,2,4-triazol-1-yl)butan-2-ol] | 0.34 (≈ 0.649 µM) | 0.024 (≈ 0.0458 µM) | 0.39 (≈ 0.745 µM) | 0.069 (≈ 0.132 µM)
